From patent US5167824A, “Separation by carrier mediated transport” (priority 1990, dated 1992)
Like-named read-outs stand apart in the source and are kept apart here.

Experiments:
[1] = organic solvents such as toluene; cited from earlier work
[2] = test system: BABS; assay: Radioimmunoassay, inhibition of 125I-digoxin binding to BABS by cardiac glycosides; parameters: species or system murine
Protocol: (§1) After the plates were washed and blocked with 1% horse serum in PBSA, solutions ([…]) containing 26-10 Fab or the BABS in either PBSA or 0.01 M sodium acetate at pH 5.5 were added to the wells and incubated 2-3 hrs at room temperature.

[3] = test system: biosynthetic protein (FB-sFv 26-10); assay: Inhibition of 125I-dig-lysine binding by unlabelled cardiac glycosides; parameters: species or system murine; settings: unlabelled glycoside; compared with parent 26-10 Fab
Description: Properties of the binding site were probed by a modification of an assay developed by Mudgett-Hunter et al. (J. Immunol. (1982) 129:1165-1172; Molec. Immunol. (1985) 22:477-488), so that it could be run on microtiter plates as a solid phase sandwich assay. Binding data were collected using goat anti-murine Fab antisera (gAmFab) as the primary antibody that initially coats the wells of the plate. These are polyclonal antisera which recognize epitopes that appear to reside mostly on framework regions.
These are polyclonal antisera which recognize epitopes that appear to reside mostly on framework regions.

[4] = test system: 26-10 Fab; format: binding, murine
Protocol: as §1

[5] = Partition coefficient of oleandrin; format: physicochemical; settings: 1-octanol and water; read-out: aqueous to organic coefficient S
[6] = Oleandrin transport through supported liquid membrane without binding protein; settings: absence of binding protein
Description: (§2) A hollow fiber device was constructed using 100×17.8 cm PAN fibers, produced by Sepracor, Inc., Marlborough, Mass. Each PAN fiber is a tubular membrane having a wall thickness of 50 μm and an internal diameter of 205 μm. Thus, this device contains a geometric surface area of 115 cm^2 of PAN fiber. The associated fluid handling equipment comprised two peristaltic pumps, one for the shell loop and one for the luman loop, a pressure gauge on the shell loop for determining the pressure drop from the shell side to the lumen side, and a throttling valve for creating a positive pressure on the shell side.
The device was first washed with 1 L of water. This washing involved convecting water through the lumen, through the shell, and through the PAN fibers from shell-side to lumen.
Following the washing procedure, the liquid membrane was put in place. A buffer solution of the same composition as that in which the FB-sFv protein was dissolved (50 mM sodium chloride) was pumped through the fibers, from the shell-side to the lumen. Approximately 100 mls of buffer solution were convected through the fibers. […]
Oleandrin is a cardiac glycoside having a molecular weight of 576, and an organic to aqueous partition coefficient between 1-octanol and water of 338 (Cohnen et al, Drug Res. 28 (II), Heft 12, 1978). […] The quantity of oleandrin contained in each lumen reservoir sample was determined by HPLC.

[7] = 1-octanol and water; cited from earlier work
[8] = test system: FB-sFv 26-10; assay: Oleandrin facilitated transport through supported liquid membrane containing FB-sFv 26-10; parameters: species or system murine
Description: as §2
The fluid loops were then drained. 100 mls of buffer containing 10.0 mgs of FB-sFv 26-10 produced as disclosed above were then slowly ultrafiltered from the shell loop at a pressure of 10 psi. […] After this time, no bulk fluid, either aqueous or organic, was present in either loop. […] Since an optical density of 1.0 at 280 nm indicates a protein concentration of 1.0 mg/ml, the filtrate contained 4.0 mgs protein. 6.0 mgs of FB-sFv 26-10 were therefore assumed to be contained in the supported liquid membrane.
Octanol saturated with buffer, but not containing oleandrin, was then convected through each loop, with the 10 psi pressure differential across the supported liquid membrane. Once uninterrupted convection through each loop was established, the shell loop reservoir was replaced with a reservoir containing 500 mls of octanol saturated with buffer, and containing 2.0 mg/ml oleandrin. The lumen reservoir was replaced with a reservoir containing 50 mls of buffer saturated octanol, containing no oleandrin. Over a 24 hour period, no convective flow of octanol through the supported liquid membrane occurred.
During this period, successive 1 ml samples of the lumen reservoir were taken. In order not to disturb the volume of the lumen reservoir, the octanol taken in each sample was replaced with 1 ml of buffer saturated octanol after drawing each sample. The quantity of oleandrin contained in each lumen reservoir sample was determined by HPLC.

[9] = normalizing glycoside digoxigenin

CCOC(=O)C(C)c1ccc2cc(OC)ccc2c1 (racemic) [racemic ethyl ester of naproxen, ethyl ester of naproxen]
solubility in organic solvents [1]: to the extent of moles per liter

CC(=O)OC1CCC2(C=O)C3CCC4(C)C(C5=CC(=O)OC5)CCC4(O)C3CCC2(O)C1 (centres unmarked) [Acetyl Strophanthidin, acetyl strophanthidin]
normalized concentration of inhibitor giving 50% inhibition of 125I-digoxin binding [2, 9]: 0.8 | normalized concentration of inhibitor giving 50% inhibition of 125I-digoxin binding ([2]; normalizing glycoside digoxin): 5.9 | inhibition of binding of 125I-dig-lysine [3]: can be inhibited | normalized concentration of inhibitor giving 50% inhibition of 125I-digoxin binding [4, 9]: 1.1 | normalized concentration of inhibitor giving 50% inhibition of 125I-digoxin binding ([4]; normalizing glycoside digoxin): 1.3

C[C@]12CC[C@H](O)C[C@H]1CC[C@@H]1[C@@H]2CC[C@]2(C)[C@@H](C3=CC(=O)OC3)CC[C@]12O [Digitoxigenin, digitoxigenin]
normalized concentration of inhibitor giving 50% inhibition of 125I-digoxin binding [2, 9]: 0.4 | normalized concentration of inhibitor giving 50% inhibition of 125I-digoxin binding ([2]; normalizing glycoside digoxin): 2.6 | inhibition of binding of 125I-dig-lysine [3]: can be inhibited | normalized concentration of inhibitor giving 50% inhibition of 125I-digoxin binding [4, 9]: 0.9 | normalized concentration of inhibitor giving 50% inhibition of 125I-digoxin binding ([4]; normalizing glycoside digoxin): 1.0

C[C@H]1O[C@@H](O[C@H]2[C@@H](O)C[C@H](O[C@H]3[C@@H](O)C[C@H](O[C@H]4CC[C@@]5(C)[C@H](CC[C@@H]6[C@@H]5CC[C@]5(C)[C@@H](C7=CC(=O)OC7)CC[C@]65O)C4)O[C@@H]3C)O[C@@H]2C)C[C@H](O)[C@@H]1O [Digitoxin, digitoxin]
normalized concentration of inhibitor giving 50% inhibition of 125I-digoxin binding [2, 9]: 0.3 | normalized concentration of inhibitor giving 50% inhibition of 125I-digoxin binding ([2]; normalizing glycoside digoxin): 2.0 | inhibition of binding of 125I-dig-lysine [3]: can be inhibited | normalized concentration of inhibitor giving 50% inhibition of 125I-digoxin binding [4, 9]: 0.8 | normalized concentration of inhibitor giving 50% inhibition of 125I-digoxin binding ([4]; normalizing glycoside digoxin): 0.9

C[C@]12CC[C@H](O)C[C@H]1CC[C@@H]1[C@@H]2C[C@@H](O)[C@]2(C)[C@@H](C3=CC(=O)OC3)CC[C@]12O [Digoxigenin, digoxigenin]
normalized concentration of inhibitor giving 50% inhibition of 125I-digoxin binding [2, 9]: 1.0 | normalized concentration of inhibitor giving 50% inhibition of 125I-digoxin binding ([2]; normalizing glycoside digoxin): 7.3 | inhibition of binding of 125I-dig-lysine [3]: can be inhibited | normalized concentration of inhibitor giving 50% inhibition of 125I-digoxin binding [4, 9]: 1.0 | normalized concentration of inhibitor giving 50% inhibition of 125I-digoxin binding ([4]; normalizing glycoside digoxin): 1.2

C[C@H]1O[C@@H](O[C@H]2[C@@H](O)C[C@H](O[C@H]3[C@@H](O)C[C@H](O[C@H]4CC[C@@]5(C)[C@H](CC[C@@H]6[C@@H]5C[C@@H](O)[C@]5(C)[C@@H](C7=CC(=O)OC7)CC[C@]65O)C4)O[C@@H]3C)O[C@@H]2C)C[C@H](O)[C@@H]1O [Digoxin, digoxin]
normalized concentration of inhibitor giving 50% inhibition of 125I-digoxin binding [2, 9]: 0.1 | normalized concentration of inhibitor giving 50% inhibition of 125I-digoxin binding ([2]; normalizing glycoside digoxin): 1.0 | inhibition of binding of 125I-dig-lysine [3]: can be inhibited | normalized concentration of inhibitor giving 50% inhibition of 125I-digoxin binding [4, 9]: 0.9 | normalized concentration of inhibitor giving 50% inhibition of 125I-digoxin binding ([4]; normalizing glycoside digoxin): 1.0

C[C@H]1O[C@@H](O[C@H]2[C@@H](O)C[C@H](O[C@H]3[C@@H](O)C[C@H](O[C@H]4CC[C@@]5(C)[C@H](CC[C@@H]6[C@@H]5CC[C@]5(C)[C@@H](C7=CC(=O)OC7)[C@@H](O)C[C@]65O)C4)O[C@@H]3C)O[C@@H]2C)C[C@H](O)[C@@H]1O [Gitoxin, gitoxin]
normalized concentration of inhibitor giving 50% inhibition of 125I-digoxin binding [2, 9]: 8.5 | normalized concentration of inhibitor giving 50% inhibition of 125I-digoxin binding ([2]; normalizing glycoside digoxin): 62 | inhibition of binding of 125I-dig-lysine [3]: can be inhibited | normalized concentration of inhibitor giving 50% inhibition of 125I-digoxin binding [4, 9]: 8.1 | normalized concentration of inhibitor giving 50% inhibition of 125I-digoxin binding ([4]; normalizing glycoside digoxin): 9.6

CO[C@H]1C[C@H](O[C@H]2CC[C@@]3(C)[C@H](CC[C@@H]4[C@@H]3CC[C@]3(C)[C@@H](C5=CC(=O)OC5)[C@@H](OC(C)=O)C[C@]43O)C2)O[C@@H](C)[C@@H]1O [Oleandrin, oleandrin]
inhibition of binding of 125I-dig-lysine [3]: can be inhibited | aqueous to organic partition coefficient [5]: ~0.003 | first order polynomial (slope) of change in oleandrin concentration [6]: 0.0023 mg/mL/h | organic to aqueous partition coefficient [7]: 338 | initial flux of oleandrin ([8]; BABS-containing membrane): 4.9×10^-12 gmole/sec-cm^2 | average flux of oleandrin ([8]; BABS-containing membrane, 24-hour): 2.9×10^-12 gmole/sec-cm^2 | first order polynomial (slope) of change in oleandrin concentration ([8]; presence of binding protein, time zero): 0.0215 mg/mL/h | initial increase of oleandrin flux ([8]; with vs without 26-10 protein): 9.3 fold

C[C@@H]1O[C@@H](O[C@H]2C[C@@H](O)[C@]3(CO)[C@H]4[C@H](O)C[C@]5(C)[C@@H](C6=CC(=O)OC6)CC[C@]5(O)[C@@H]4CC[C@]3(O)C2)[C@H](O)[C@H](O)[C@H]1O [Ouabain, ouabain]
normalized concentration of inhibitor giving 50% inhibition of 125I-digoxin binding [2, 9]: 21 | normalized concentration of inhibitor giving 50% inhibition of 125I-digoxin binding ([2]; normalizing glycoside digoxin): 150 | inhibition of binding of 125I-dig-lysine [3]: can be inhibited | normalized concentration of inhibitor giving 50% inhibition of 125I-digoxin binding [4, 9]: 13 | normalized concentration of inhibitor giving 50% inhibition of 125I-digoxin binding ([4]; normalizing glycoside digoxin): 15
